A word on the inhibition: it is how much of the control response was suppressed. A high value points to strong suppression.

This note sets out measurements from patent publication US8071584B2 (GlaxoSmithKline LLC, priority 2007, dated 2011).

The experiment relates to human monocyte stimulated cytokine production (TNF-α). The experiment in a line: Monocyte assay (LPS-stimulated TNF-α production). The format is cell-based. As to conditions: for IC50: human CD14+ monocytes, 200 ng/mL LPS, 24 hrs, values given as 'about', read-out: pIC50 in the monocyte assay (converted); for inhibition at 0.3 µM: 300 nM, human monocytes, LPS. Here is the method:
Effect of IKK-β inhibition on human monocyte stimulated cytokine production was assessed as follows: Monocytes were isolated from heparinized whole blood by Ficoll gradient, followed by purification of CD14+ cells using MACS magnetic cell separation beads. Isolated monocytes were then adhered to 96-well culture plates at 1×10^6 cells/mL in RPMI 1640 10% FBS (JRH Biosciences, Lenexa Kans.) for 2 h. Test compounds are added to the wells 30 minutes prior to stimulation with a final vehicle concentration of 0.1% DMSO. Monocytes were activated by the addition of 200 ng/mL endotoxin (LPS; E. coli serotype 026:B6) (Sigma, St. Louis, Mo.) and incubated for 24 hrs at 37 C. Cell-free supernates were analyzed by Alphascreen™ (Perkin Elmer, Waltham, Mass.) for TNF-α using R&D Systems matched pair Abs. Viability of the cells was determined by 10% trypan blue exclusion.

Turning to `NC(=O)c1cc(-c2ccc(F)cc2)cc2c(C3CCS(=O)(=O)C3)c[nH]c12` (racemic) [Example 171, (rac)-3-(1,1-Dioxidotetrahydro-3-thienyl)-5-(4-fluorophenyl)-1H-indole-7-carboxamide], the IC50 is 5.01 to 1000 nM.

On to `CC(C)[C@H]1C[C@H](c2c[nH]c3c(C(N)=O)cc(-c4ccsc4)cc23)CCS1(=O)=O` (racemic) [Example 241, (racemic)-3-[trans-2-(1-Methylethyl)-1,1-dioxidotetrahydro-2H-thiopyran-4-yl]-5-(3-thienyl)-1H-indole-7-carboxamide], for which the IC50 was 5.01 to 1000 nM.

Consider `CC(C)[C@H]1C[C@H](c2c[nH]c3c(C(N)=O)cc(-c4ccccc4)cc23)CCS1(=O)=O` (racemic) [Example 242, racemic-3-[(trans)-2-(1-Methylethyl)-1,1-dioxidotetrahydro-2H-thiopyran-4-yl]-5-phenyl-1H-indole-7-carboxamide], for which the inhibition at 0.3 µM is 0 to 100%.

For `CC(C)[C@H]1CC(c2c[nH]c3c(C(N)=O)cc(-c4ccoc4)cc23)CCS1(=O)=O` (mixture of isomers) [Example 243, (mixture of isomers)-5-(3-Furanyl)-3-[trans-2-(1-methylethyl)-1,1-dioxidotetrahydro-2H-thiopyran-4-yl]-1H-indole-7-carboxamide], the inhibition at 0.3 µM was 0 to 100%.

As to `CC(C)[C@H]1C[C@H](c2c[nH]c3c(C(N)=O)cc(-c4ccco4)cc23)CCS1(=O)=O` (racemic) [Example 244, (racemic)-5-(2-Furanyl)-3-[trans-2-(1-methylethyl)-1,1-dioxidotetrahydro-2H-thiopyran-4-yl]-1H-indole-7-carboxamide], the IC50 is 5.01 to 1000 nM.

`CC(C)[C@H]1C[C@H](c2c[nH]c3c(C(N)=O)cc(-c4cccs4)cc23)CCS1(=O)=O` (racemic) [Example 245, (racemic)-3-[trans-2-(1-Methylethyl)-1,1-dioxidotetrahydro-2H-thiopyran-4-yl]-5-(2-thienyl)-1H-indole-7-carboxamide]: the IC50 was 5.01 to 1000 nM.

On to `CC(C)[C@@H]1C[C@H](c2c[nH]c3c(C(N)=O)cc(-c4ccsc4)cc23)CCS1(=O)=O` (racemic) [Example 246, (racemic)-3-[cis-2-(1-Methylethyl)-1,1-dioxidotetrahydro-2H-thiopyran-4-yl]-5-(3-thienyl)-1H-indole-7-carboxamide], for which the IC50 is 5.01 to 1000 nM.

For `NC(=O)c1cc(-c2cccs2)cc2c([C@H]3CCS(=O)(=O)[C@@H](c4ccccc4)C3)c[nH]c12` (racemic) [Example 249, 3-(1,1-Dioxido-2-cis-phenyltetrahydro-2H-thiopyran-4-yl)-5-(2-thienyl)-1H-indole-7-carboxamide], the IC50 was 5.01 to 1000 nM.

For `NC(=O)c1cc(-c2ccoc2)cc2c([C@H]3CCS(=O)(=O)[C@@H](c4ccccc4)C3)c[nH]c12` (racemic) [Example 250, 3-(1,1-Dioxido-2-cis-phenyltetrahydro-2H-thiopyran-4-yl)-5-(3-furanyl)-1H-indole-7-carboxamide], the IC50 is 5.01 to 1000 nM.

Regarding `NC(=O)c1cc(-c2ccco2)cc2c([C@H]3CCS(=O)(=O)[C@@H](c4ccccc4)C3)c[nH]c12` (racemic) [Example 251, 3-(1,1-Dioxido-2-phenyltetrahydro-2H-thiopyran-4-yl)-5-(2-furanyl)-1H-indole-7-carboxamide], the IC50 is 5.01 to 1000 nM.

Turning to `NC(=O)c1cc(-c2ccccc2)cc2c([C@H]3CCS(=O)(=O)[C@@H](c4ccccc4)C3)c[nH]c12` (racemic) [Example 252, 3-(1,1-Dioxido-2-phenyltetrahydro-2H-thiopyran-4-yl)-5-phenyl-1H-indole-7-carboxamide], the IC50 is 5.01 to 1000 nM.

On to `NC(=O)c1cc(-c2ccccc2)cc2c(C3CCS(=O)(=O)CC3)c[nH]c12` [Example 1, 3-(1,1-Dioxidotetrahydro-2H-thiopyran-4-yl)-5-phenyl-1H-indole-7-carboxamide], for which the IC50 is 5.01 to 1000 nM.

For `N#CCc1ccc(-c2cc(C(N)=O)c3[nH]cc(C4CCS(=O)(=O)CC4)c3c2)cc1` [Example 65, 5-[4-(Cyanomethyl)phenyl]-3-(1,1-dioxidotetrahydro-2H-thiopyran-4-yl)-1H-indole-7-carboxamide], the IC50 is 5.01 to 1000 nM.

Consider `CC(C)(O)CCc1ccc(-c2cc(C(N)=O)c3[nH]cc(C4CCS(=O)(=O)CC4)c3c2)s1` [Example 66, 3-(1,1-Dioxidotetrahydro-2H-thiopyran-4-yl)-5-[5-(3-hydroxy-3-methylbutyl)-2-thienyl]-1H-indole-7-carboxamide], for which the IC50 was 5.01 to 1000 nM.

Take `CN(C)c1ccc(-c2cc(C(N)=O)c3[nH]cc(C4CCS(=O)(=O)CC4)c3c2)cn1` [Example 67, 5-[6-(Dimethylamino)-3-pyridinyl]-3-(1,1-dioxidotetrahydro-2H-thiopyran-4-yl)-1H-indole-7-carboxamide]: the IC50 is 5.01 to 1000 nM.

For `NC(=O)c1cc(-c2ccnc(Cl)c2)cc2c(C3CCS(=O)(=O)CC3)c[nH]c12` [Example 68, 5-(2-Chloro-4-pyridinyl)-3-(1,1-dioxidotetrahydro-2H-thiopyran-4-yl)-1H-indole-7-carboxamide], the IC50 was 5.01 to 1000 nM.

Regarding `NC(=O)c1cc(-c2ccc3c(c2)CCO3)cc2c(C3CCS(=O)(=O)CC3)c[nH]c12` [Example 69, 5-(2,3-Dihydro-1-benzofuran-5-yl)-3-(1,1-dioxidotetrahydro-2H-thiopyran-4-yl)-1H-indole-7-carboxamide], the IC50 was 5.01 to 1000 nM.

As for `NC(=O)c1cc(-c2csc(CN3CCC3)c2)cc2c(C3CCS(=O)(=O)CC3)c[nH]c12` [Example 70, 5-[5-(1-Azetidinylmethyl)-3-thienyl]-3-(1,1-dioxidotetrahydro-2H-thiopyran-4-yl)-1H-indole-7-carboxamide], the inhibition at 0.3 µM lay within 0 to 100%.

For `COCCN(C)Cc1cc(-c2cc(C(N)=O)c3[nH]cc(C4CCS(=O)(=O)CC4)c3c2)cs1` [Example 71, 3-(1,1-Dioxidotetrahydro-2H-thiopyran-4-yl)-5-[5-({methyl[2-(methyloxy)ethyl]amino}methyl)-3-thienyl]-1H-indole-7-carboxamide], the IC50 is 5.01 to 1000 nM.

Turning to `NC(=O)c1cc(-c2csc(CN3CCCCCC3)c2)cc2c(C3CCS(=O)(=O)CC3)c[nH]c12` [Example 72, 3-(1,1-Dioxidotetrahydro-2H-thiopyran-4-yl)-5-[5-(hexahydro-1H-azepin-1-ylmethyl)-3-thienyl]-1H-indole-7-carboxamide], the IC50 was 5.01 to 1000 nM.

Turning to `CN(C)Cc1cc(-c2cc(C(N)=O)c3[nH]cc(C4CCS(=O)(=O)CC4)c3c2)cs1` [Example 73, 5-{5-[(Dimethylamino)methyl]-3-thienyl}-3-(1,1-dioxidotetrahydro-2H-thiopyran-4-yl)-1H-indole-7-carboxamide], the IC50 is 5.01 to 1000 nM.

Regarding `CC(C)N(C)Cc1cc(-c2cc(C(N)=O)c3[nH]cc(C4CCS(=O)(=O)CC4)c3c2)cs1` [Example 74, 3-(1,1-Dioxidotetrahydro-2H-thiopyran-4-yl)-5-(5-{[methyl(1-methylethyl)amino]methyl}-3-thienyl)-1H-indole-7-carboxamide], the IC50 is 5.01 to 1000 nM.

On to `CCN(C)Cc1cc(-c2cc(C(N)=O)c3[nH]cc(C4CCS(=O)(=O)CC4)c3c2)cs1` [Example 75, 3-(1,1-Dioxidotetrahydro-2H-thiopyran-4-yl)-5-(5-{[ethyl(methyl)amino]methyl}-3-thienyl)-1H-indole-7-carboxamide], for which the IC50 was 5.01 to 1000 nM.

Regarding `CCN(CC)Cc1cc(-c2cc(C(N)=O)c3[nH]cc(C4CCS(=O)(=O)CC4)c3c2)cs1` [Example 76, 5-{5-[(diethylamino)methyl]-3-thienyl}-3-(1,1-dioxidotetrahydro-2H-thiopyran-4-yl)-1H-indole-7-carboxamide], the IC50 was 5.01 to 1000 nM.

Regarding `CN(CCOC(C)(C)C)Cc1cc(-c2cc(C(N)=O)c3[nH]cc(C4CCS(=O)(=O)CC4)c3c2)cs1` [Example 77, 5-(5-{[{2-[(1,1-Dimethylethyl)oxy]ethyl}(methyl)amino]methyl}-3-thienyl)-3-(1,1-dioxidotetrahydro-2H-thiopyran-4-yl)-1H-indole-7-carboxamide], the inhibition at 0.3 µM lay in the range of 0 to 100%.

As for `CNCc1cccc(-c2cc(C(N)=O)c3[nH]cc(C4CCS(=O)(=O)CC4)c3c2)c1` [Example 78, 3-(1,1-Dioxidotetrahydro-2H-thiopyran-4-yl)-5-{3-[(methylamino)methyl]phenyl}-1H-indole-7-carboxamide], the IC50 is 5.01 to 1000 nM.

For `CN(C)Cc1cccc(-c2cc(C(N)=O)c3[nH]cc(C4CCS(=O)(=O)CC4)c3c2)c1` [Example 79], the IC50 was 5.01 to 1000 nM.

In the case of `CC(C)[C@H](C)NCc1cccc(-c2cc(C(N)=O)c3[nH]cc(C4CCS(=O)(=O)CC4)c3c2)c1` [Example 80, 5-[3-({[(1S)-1,2-Dimethylpropyl]amino}methyl)phenyl]-3-(1,1-dioxidotetrahydro-2H-thiopyran-4-yl)-1H-indole-7-carboxamide], the IC50 was 5.01 to 1000 nM.

As for `NC(=O)c1cc(-c2ccc(S(=O)(=O)N3CCC3)s2)cc2c(C3CCS(=O)(=O)CC3)c[nH]c12` [Example 81, 5-[5-(1-Azetidinylsulfonyl)-2-thienyl]-3-(1,1-dioxidotetrahydro-2H-thiopyran-4-yl)-1H-indole-7-carboxamide], the IC50 is 5.01 to 1000 nM.

`NC(=O)c1cc(-c2ccc3[nH]ncc3c2)cc2c(C3CCS(=O)(=O)CC3)c[nH]c12` [Example 82, 3-(1,1-Dioxidotetrahydro-2H-thiopyran-4-yl)-5-(1H-indazol-5-yl)-1H-indole-7-carboxamide]: the IC50 was 5.01 to 1000 nM.
